# Measured values taken from patent US12161722B2, “Bifunctional heterocyclic compound having BTK degradation function via ubiquitin proteasome pathway, and use thereof” (KOREA RESEARCH INSTITUTE OF CHEMICAL TECHNOLOGY, priority 2021, dated 2024).
# Target: T1, WT BTK protein (Homo sapiens, UniProt Q06187)
# T1 construct: measured for intracellular BTK protein levels by Western blotting; endogenous in cells; host or cells: TMD-8 or RAMOS cells
# Assay: BTK protein degradation assay (Western blotting), WT BTK
# Assay type: cell-based
# Conditions: concentration range accounting for 50% degradation of WT BTK protein, TMD-8 or RAMOS cells, 24 hours
# In short: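 BTK levels were read by Western blotting (GAPDH and β-actin normalisers) in RIPA lysates of TMD-8 cells exposed to compounds for 24 h at 1×10^6 cells/mL. Results scored in ranges of the concentration producing 50% loss of WT BTK.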
# T1 sequence (Q06187 whole entry): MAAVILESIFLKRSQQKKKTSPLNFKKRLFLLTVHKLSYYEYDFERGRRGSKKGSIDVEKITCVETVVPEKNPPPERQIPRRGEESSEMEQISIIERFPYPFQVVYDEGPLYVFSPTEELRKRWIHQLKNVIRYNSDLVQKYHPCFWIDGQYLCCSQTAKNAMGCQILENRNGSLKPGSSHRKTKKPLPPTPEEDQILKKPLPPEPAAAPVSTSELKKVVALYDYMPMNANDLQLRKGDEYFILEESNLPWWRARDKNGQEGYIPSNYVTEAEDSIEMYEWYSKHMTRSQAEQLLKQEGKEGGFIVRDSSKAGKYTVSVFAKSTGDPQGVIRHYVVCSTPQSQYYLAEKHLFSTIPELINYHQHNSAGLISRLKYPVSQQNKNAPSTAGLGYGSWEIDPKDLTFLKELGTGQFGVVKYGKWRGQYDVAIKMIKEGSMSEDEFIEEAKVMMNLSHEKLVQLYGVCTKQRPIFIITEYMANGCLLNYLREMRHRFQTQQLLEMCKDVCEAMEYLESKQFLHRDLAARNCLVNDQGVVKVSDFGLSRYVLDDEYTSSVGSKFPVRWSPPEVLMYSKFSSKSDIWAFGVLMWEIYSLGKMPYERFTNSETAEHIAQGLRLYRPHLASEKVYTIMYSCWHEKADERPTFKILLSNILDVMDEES
row,SMILES,DC50 [nM]
1,"Cc1cccc(C)c1Nc1nn(C)c2nc(Nc3ccc(N4CCN(CC5CCN(c6cc7c(cc6F)C(=O)N(C6CCC(=O)NC6=O)C7)CC5)CC4)cc3)ncc12 (centres unmarked) [Compound 245, 3-(5-(4-((4-(4-((3-((2,6-Dimethylphenyl)amino)-1-methyl-1H-pyrazolo[3,4-d]pyrimidin-6-yl)amino)phenyl)piperazin-1-yl)methyl)piperidin-1-yl)-6-fluoro-1-oxoisoindolin-2-yl)piperidin-2,6-one]",0.1 to 10
2,"Cc1cccc(C)c1Nc1nn(C)c2nc(Nc3ccc(N4CCN(C5CN(c6ccc7c(c6)C(=O)N(C6CCC(=O)NC6=O)C7=O)C5)CC4)nc3)ncc12 (centres unmarked) [Compound 158, 5-(3-(4-(5-((3-((2,6-Dimethylphenyl)amino)-1-methyl-1H-pyrazolo[3,4-d]pyrimidin-6-yl)amino)pyridin-2-yl)piperazin-1-yl)azetidin-1-yl)-2-(2,6-dioxopiperidin-3-yl)isoindoline-1,3-dione]",0.1 to 10
3,"Cc1cccc(C)c1Nc1nn(C)c2nc(Nc3ccc(N4CCN(CC5CCN(c6ccc7c(n6)C(=O)N(C6CCC(=O)NC6=O)C7=O)CC5)CC4)cc3)ncc12 (centres unmarked) [Compound 188, 3-(2-(4-((4-(4-((3-((2,6-Dimethylphenyl)amino)-1-methyl-1H-pyrazolo[3,4-d]pyrimidin-6-yl)amino)phenyl)piperazin-1-yl)methyl)piperidin-1-yl)-5-oxo-5,7-dihydro-6H-pyrrolo[3,4-b]pyridin-6-yl)piperidin-2,6-one]",0.1 to 10
4,"Cc1cccc(C)c1Nc1nn(C)c2nc(Nc3ccc4c(c3)CN(C(=O)CN3CCN(c5ccc6c(c5)C(=O)N(C5CCC(=O)NC5=O)C6=O)CC3)CC4)ncc12 (centres unmarked) [Compound 93, 5-(4-(2-(7-((3-((2,6-dimethylphenyl)amino)-1-methyl-1H-pyrazolo [3,4-d]pyrimidin-6-yl)amino)-3,4-dihydroisoquinolin-2 (1H)-yl)-2-oxoethyl)piperazin-1-yl)-2-(2,6-dioxopiperidin-3-yl)isoindoline-1,3-dione]",10 to 1000

# Further lines, results first:
row,DC50 [nM],SMILES
1,1000 to 10000,"Cc1cccc(C)c1Nc1nn(C)c2nc(Nc3ccc4c(c3)CN(CC(=O)N3CCC(Oc5ccc6c(c5)C(=O)N(C5CCC(=O)NC5=O)C6)CC3)CC4)ncc12 (centres unmarked) [Compound 116, 3-(6-((1-(2-(7-((3-((2,6-dimethylphenyl)amino)-1-methyl-1H-pyrazolo[3,4-d]pyrimidin-6-yl)amino)-3,4-dihydroisoquinolin-2 (1H)-yl)acetyl)piperidin-4-yl)oxy)-1-oxoisoindolin-2-yl)piperidin-2,6-one]"
2,0.1 to 10,"Cc1cccc(C)c1Nc1nn(C)c2nc(Nc3ccc4c(c3)CN(C(=O)COc3ccc5c(c3)CN(C3CCC(=O)NC3=O)C5=O)CC4)ncc12 (centres unmarked) [Compound 105, 3-(5-(2-(7-((3-((2,6-Dimethylphenyl)amino)-1-methyl-1H-pyrazolo[3,4-d]pyrimidin-6-yl)amino)-3,4-dihydroisoquinolin-2 (1H)-yl)-2-oxoethoxy)-1-oxoisoindolin-2-yl)piperidin-2,6-one]"
3,10 to 1000,"Cc1cccc(C)c1Nc1nn(C)c2nc(Nc3ccc4c(c3)CN(CC(=O)N3CCN(c5ccc6c(c5)CN(C5CCC(=O)NC5=O)C6=O)CC3)CC4)ncc12 (centres unmarked) [Compound 103, 3-(5-(4-(2-(7-((3-((2,6-dimethylphenyl)amino)-1-methyl-1H-pyrazolo[3,4-d]pyrimidin-6-yl)amino)-3,4-dihydroisoquinolin-2 (1H)-yl)acetyl)piperazin-1-yl)-1-oxoisoindolin-2-yl)piperidin-2,6-one]"
4,0.1 to 10,"Cc1cccc(C)c1Nc1nn(C)c2nc(Nc3ccc4c(c3)CN(CC3CCN(C(=O)c5ccc6c(c5)CN(C5CCC(=O)NC5=O)C6=O)CC3)CC4)ncc12 (centres unmarked) [Compound 258, 3-(5-(4-((7-((3-((2,6-Dimethylphenyl)amino)-1-methyl-1H-pyrazolo[3,4-d]pyrimidin-6-yl)amino)-3,4-dihydroisoquinolin-2 (1H)-yl)methyl)piperidine-1-carbonyl)-1-oxoisoindolin-2-yl)piperidin-2,6-one]"
